Source: article PMC11969438 (Inorganic Chemistry Frontiers, 2025)
Entries after “also recorded” stand apart in the source; their conditions may differ.

What was measured:
[1] = Hematological analysis 24 h after the second dose; conditions: 24 h after second dose; for anemia: two i.v. doses equimolar to 9 mg kg^−1 oxaliplatin
Experimental: Mice were kept in groups of four per cage with sterilized paper-based environmental enrichment and food and water ad libitum, under pathogen-free conditions and a controlled environment with a 12 h light–dark cycle. Syngeneic models of colorectal carcinoma were generated via subcutaneous injection of CT-26 cells (0.5 × 10^6 cells in 50 μL of serum-free RPMI-1640 medium) into the right flank of 8–12 weeks old BALB/c mice. […] All animals were euthanized 24 h after the second dose. […] To determine the anticancer efficacy of the investigated compounds, treatment started 4 d after tumor implantation, when all tumors were measurable (>25 mm^3) using a twice-weekly treatment scheme for two weeks. Tumor size was determined daily via manual caliper measurement. The tumor volume was calculated as tumor volume = (length × diameter × diameter)/2. The overall condition, shape, and activity of the animals were assessed daily. Peripheral blood was collected from the submandibular vein in K3E K3EDTA tubes (Greiner Bio-One; Kremsmünster, AUT) on ice and was analyzed for hematological parameters (red blood cells (RBCs), hemoglobin (HGB), hematocrit (HCT), red cell distribution width (RDW), mean corpuscular volume (MCV), white blood cells (WBCs), lymphocytes (LYM), monocytes (MO), granulocytes (GRA), and platelets (PLT) using a Vet ABC hematology analyzer (scil Animal Care GmbH, Viernheim, Germany). EDTA-blood was centrifuged (900g, 10 min) twice and the supernatant (EDTA-plasma) was stored at −20 °C for subsequent cytokine/chemokine analysis using a Luminex detection platform. All animal experiments were performed with humane endpoints based on Federation of European Laboratory Animal Science Associations guidelines and according to the regulations of the Ethics Committee for the Care and Use of Laboratory Animals at the Medical University Vienna (proposal number BMBWF 2023–0.122.324). Animals were euthanized upon reaching a tumor volume of >1500 mm^3, a loss in body weight (>20%), tumor ulceration or other indications of deteriorated health. Animals were euthanized via cervical dislocation.

CT-26 tumors = assay: Anticancer efficacy in vivo, syngeneic colorectal carcinoma; set-up: species or system BALB/c mice
Experimental: (§1) Tumor size was determined daily via manual caliper measurement. […] Animals were euthanized via cervical dislocation.

THP1-Dual cells [2] = assay: Cytokine and chemokine secretion in cell culture supernatant, Luminex; format: cell-based, human; conditions: 24 h
Experimental: Quantification of secreted protein targets in either cell culture SN or in plasma of treated animals was performed using a ProcartaPlex (96-well) multiplex assay panel (Thermo Fisher Scientific) in the xMAP detection platform (Luminex). For the in vitro detection of secreted proteins, THP1-Dual cells were seeded at 1 × 10^5 cells per well in 96-well plates in RPMI-1640 medium, supplemented with 10% FCS, L-glutamine and Pen-Strep. After 24 h of recovery, the compounds were applied at the concentrations indicated in triplicate.
After 24 h of drug incubation, the cell culture SN of technical triplicate was collected, pooled, centrifuged (400g, 10 min, 4 °C), transferred into a fresh tube, and stored at −20 °C.
Next, the ProcartaPlex (96-well) multiplex assay panel was performed according to the manufacturer's recommendations. In brief, the capture bead mix was incubated with test samples (undiluted SN or mouse plasma) or standard mix overnight. The SN of three independent experiments or the plasma of four animals per treatment group was loaded onto the multiplex assay plate. Next, biotinylated detection antibody mix and Streptavidin-PE were added to the plate. Following the recommended washing steps, the samples were incubated in a reading buffer and were measured using a Luminex xMAP platform (Bio-Plex MAGPIX Multiplex Reader; Bio-Rad Laboratories) and analyzed using xPONENT software.

[3] = Platinum distribution study in vivo by ICP-MS; set-up: species or system CT-26 tumor-bearing BALB/c mice; conditions: i.v., 24 h after second dose; for serum platinum levels: two doses
Experimental: as §1
The generation and treatment of tumor-bearing mice are outlined in the section “In vivo syngraft experiments” described above. Mouse tissues were processed as described previously.[13] Briefly, serum was isolated from peripheral blood by centrifugation (900g, 10 min, 4 °C, twice). Tissues were digested in 20% nitric acid and hydrogen peroxide using an open-vessel graphite digestion system. The platinum concentration was determined by ICP-MS analysis; for details see “Intracellular platinum accumulation in vitro by ICP-MS”.

[4] = Reduction kinetics with 10 eq. L-ascorbic acid in phosphate buffer, UHPLC; format: physicochemical; conditions: 10 eq. AA, PB pH 7.4, 20 °C, after 24 h
Experimental: (§2) PB (150 mM, pH 7.4) containing 1 mM platinum compound was incubated at 20 °C, with and without the addition of 10 eq. of AA. The reaction was monitored using a Thermo Scientific Dionex UltiMate 3000 UHPLC system with a Waters Acquity UPLC BEH C18 1.7 μm 3.0 × 50 mm column. Milli-Q water containing 0.1% formic acid and acetonitrile containing 0.1% formic acid were used as eluents. A gradient of 5–95% over 5 min was used with a flow of 0.6 mL min^−1. To evaluate the current state of the reaction, the peak area of the parental complex was used.

[5] = Hydrolytic stability in phosphate buffer, UHPLC; format: physicochemical; conditions: 1 mM, 150 mM PB pH 7.4, 20 °C, over 24 h
Experimental: as §2

THP1-Dual cells [6] = assay: Western blot analysis of STING downstream pathway, DNA damage and cell death markers; format: cell-based, human; conditions: 24 h
Experimental: The THP1-Dual cell model was seeded at 1 × 10^6 cells per well in six-well plates. After 24 h of recovery, the compounds were applied at the concentrations indicated. After 24 h of drug exposure, whole-cell protein isolation was performed as described previously.[14] Sodium dodecyl sulfate polyacrylamide gel electrophoresis was performed. Proteins were transferred onto polyvinylidene difluoride membranes (Thermo Scientific, Waltham, MA, USA). Antibodies targeting STING (##13 647; 1 : 1000), phospho-STING (#19 781; 1 : 500), TBK1 (#3504; 1 : 500), IRF-3 (#4302; 1 : 500), phospho-p65 (#3033; 1 : 500), ISG15 (#2743; 1 : 1000), caspase-3 (#9665; 1 : 1000), cleaved caspase-3 (#9661; 1 : 1000), PARP (#9532; 1 : 1000), and cleaved PARP (#9541; 1 : 1000) were purchased from Cell Signaling Technology (Danvers, MA, USA). The p65 antibody (#sc-372; 1 : 1000) was purchased from Santa Cruz and the phospho-H2A.X antibody (#05-636-I; 1 : 500) was obtained from Merck (Darmstadt, Germany). The anti-β-actin (#5441; 1 : 2000) antibody was obtained from Sigma-Aldrich. The anti-mouse IgG (#A0168; 1 : 10 000) horseradish peroxidase (HRP)-coupled secondary antibody was purchased from Sigma-Aldrich, and the anti-rabbit IgG (#7074; 1 : 5000) HRP-linked secondary antibody was obtained from Cell Signaling Technology.

SMILES	red blood cell counts (RBCs), hematocrit (HCT), red cell distribution width (RDW) [1]	anemia [1]	tumor growth (CT-26 tumors; i.v. twice a week for two weeks, equimolar to 9 mg kg^−1 oxaliplatin)	TNF-α and IFN-γ secretion (THP1-Dual cells [2]; oxaliplatin 5 μM)	serum platinum levels [3]	complex remaining intact in presence of AA [4]	stability in PB [5]	DNA damage (p-H2A.X upregulation, cleavage of caspase-3 and PARP) (THP1-Dual cells [6])	tumor volume (CT-26 tumors; peritumoral (p.t.) application, identical doses as i.v.)	secretion of cytokines and chemokines (THP1-Dual cells [2]; prodrug 100 μM, MSA-2 25 μM)	liver platinum level relative to tumor ([3]; two doses equimolar to 9 mg kg^−1 oxaliplatin) [fold]	induction of ISG15 (THP1-Dual cells [6])
O=C1[O][Pt]2([NH][C@@H]3CCCC[C@H]3[NH]2)[O]C1=O [oxaliplatin, reference compound]	clearly lowered	anemia	clearly reduced tumor growth	activated predominantly by oxaliplatin	Low serum platinum levels							
COCCOCCOCCOCCC(=O)[O][Pt-2]12([O]C(=O)CCC(=O)c3cc4cc(OC)c(OC)cc4s3)([NH2+][C@@H]3CCCC[C@H]3[NH2+]1)[O]C(=O)C(=O)[O]2 [Ox-MSA-PEG-Es, (OC-6-44)-[(1R,2R)-1,2-cyclohexanediamino]-oxalato-[4-(5,6-dimethoxybenzo[b]thiophen-2-yl)-4-oxobutylcarboxylato]-[2,5,8,11-tetraoxatetradecanoato]platinum(IV)]						~80%	stable	induced DNA damage				
COCCOCCOCCOCCNC(=O)[O][Pt-2]12([O]C(=O)CCC(=O)c3cc4cc(OC)c(OC)cc4s3)([NH2+][C@@H]3CCCC[C@H]3[NH2+]1)[O]C(=O)C(=O)[O]2 [Ox-MSA-PEG-Ca, (OC-6-34)-[(1R,2R)-1,2-cyclohexanediamino]-oxalato-[4-(5,6-dimethoxybenzo[b]thiophen-2-yl)-4-oxobutylcarboxylato]-[3,6,9,12-tetraoxatridecan-1-amino]platinum(IV)]		not			Low serum platinum levels	very well comparable to Ox-MSA-PEG-Es	very well comparable to Ox-MSA-PEG-Es	induced DNA damage	robust and significant decrease in the tumor volume; also recorded: distinct anticancer activity	induced distinct secretion of cytokines and chemokines	9.7	triggered
